Experimental data taken from the NIST ThermoML archive (doi:10.1016/j.jct.2018.08.035).

Test: xn = mol fraction of the nth substance listed
Conditions: 100 kPa, Liquid, Vibrating tube method

CCC(O)CC [3-pentanol] + C[N+](=O)[O-]
Conditions | mass density [kg/m3]
291.86 K, x1 = 0.325 | 974.982
291.86 K, x1 = 0.363 | 961.613
291.86 K, x1 = 0.407 | 946.991
291.86 K, x1 = 0.488 | 922.68
291.86 K, x1 = 0.546 | 907.193
291.86 K, x1 = 0.587 | 896.735
291.95 K, x1 = 0.246 | 1005.58
291.95 K, x1 = 0.275 | 993.548
291.95 K, x1 = 0.3 | 984.145
291.95 K, x1 = 0.325 | 974.857
291.95 K, x1 = 0.338 | 970.048
291.95 K, x1 = 0.363 | 961.485
291.95 K, x1 = 0.382 | 954.991
291.95 K, x1 = 0.407 | 946.861
291.95 K, x1 = 0.414 | 944.587
291.95 K, x1 = 0.486 | 923.287
291.95 K, x1 = 0.488 | 922.559
291.95 K, x1 = 0.573 | 900.26
291.95 K, x1 = 0.587 | 896.628
291.95 K, x1 = 0.615 | 889.805
291.96 K, x1 = 0.266 | 997.055
291.96 K, x1 = 0.546 | 907.079
292.05 K, x1 = 0.246 | 1005.45
292.05 K, x1 = 0.275 | 993.426
292.05 K, x1 = 0.382 | 954.866
292.05 K, x1 = 0.414 | 944.459
292.05 K, x1 = 0.486 | 923.167
292.05 K, x1 = 0.573 | 900.153
292.05 K, x1 = 0.615 | 889.701
292.06 K, x1 = 0.266 | 996.934
292.06 K, x1 = 0.3 | 984.022
292.06 K, x1 = 0.325 | 974.734
292.06 K, x1 = 0.338 | 969.925
292.06 K, x1 = 0.363 | 961.36
292.06 K, x1 = 0.407 | 946.736
292.06 K, x1 = 0.488 | 922.439
292.06 K, x1 = 0.546 | 906.966
292.06 K, x1 = 0.587 | 896.519
292.15 K, x1 = 0.246 | 1005.33
292.15 K, x1 = 0.325 | 974.609
292.15 K, x1 = 0.338 | 969.8
292.15 K, x1 = 0.382 | 954.742
292.15 K, x1 = 0.414 | 944.336
292.15 K, x1 = 0.486 | 923.052
292.15 K, x1 = 0.488 | 922.322
292.16 K, x1 = 0.266 | 996.81
292.16 K, x1 = 0.275 | 993.303
292.16 K, x1 = 0.3 | 983.896
292.16 K, x1 = 0.363 | 961.234
292.16 K, x1 = 0.407 | 946.608
292.16 K, x1 = 0.546 | 906.853
292.16 K, x1 = 0.573 | 900.046
292.16 K, x1 = 0.587 | 896.411
292.16 K, x1 = 0.615 | 889.595
292.16 K, x1 = 0.629 | 886.146
293.15 K, x1 = 0.266 | 995.587
293.15 K, x1 = 0.338 | 968.578
293.15 K, x1 = 0.546 | 905.746
293.16 K, x1 = 0.246 | 1004.11
293.16 K, x1 = 0.275 | 992.082
293.16 K, x1 = 0.3 | 982.679
293.16 K, x1 = 0.325 | 973.389
293.16 K, x1 = 0.363 | 960.014
293.16 K, x1 = 0.382 | 953.524
293.16 K, x1 = 0.407 | 945.397
293.16 K, x1 = 0.414 | 943.126
293.16 K, x1 = 0.486 | 921.889
293.16 K, x1 = 0.488 | 921.165
293.16 K, x1 = 0.573 | 898.962
293.16 K, x1 = 0.587 | 895.341
293.16 K, x1 = 0.615 | 888.546
293.16 K, x1 = 0.629 | 885.109
294.15 K, x1 = 0.246 | 1002.88
294.15 K, x1 = 0.266 | 994.369
294.15 K, x1 = 0.275 | 990.864
294.15 K, x1 = 0.3 | 981.466
294.15 K, x1 = 0.325 | 972.183
294.15 K, x1 = 0.338 | 967.375
